Reference: patent US4469681A, “Method and system for the controlled release of biologically active substances to a body fluid” (The Rockefeller University, priority 1981, dated 1984)

Columns and labels:
Concanavalin A = Concanavalin A (Canavalia ensiformis, UniProt P02866); assay: Binding to and glucose displacement from immobilized Concanavalin A columns; set-up: species or system Jack Bean
Description: At the point indicated by the arrow, 0.2M glucose in the column buffer was begun. Fractions (2.0 ml) were collected at a flow rate of 10-15 ml/h.
Displacement of hormone was accomplished using 1.0 ml pulses of column buffer containing varying amounts of glucose. Glucose content is indicated over the appropriate arrows. Fractions (1.7 ml) were collected at a flow rate of 10-15 ml/h.

blood glucose = assay: Blood-glucose depression assay modified from the U.S. Pharmacopeia; assay type: in vivo; conditions: 60 minutes after injection; for Blood glucose depression: 0.1 mg protein/100 gm body weight subcutaneous after overnight fast
Text: weight by subcutaneous injection.
injection using a Beckman Glucose Analyzer 2.

Substance: Control insulin: porcine insulin (Lilly), unmodified
- Binding to immobilized Concanavalin A (Concanavalin A; 20 mg applied to column, buffer 1 mM MgCl2, 1 mM CaCl2, 50 mM NaCl, 25 mM sodium phosphate, pH 7.4): did not bind
- Displacement from Concanavalin A binding sites by glucose (Concanavalin A; 0.2M glucose in column buffer, 1,000:1 molar excess of glucose): none was eluted by the addition of glucose
- Blood glucose depression (blood glucose; Animal A): 75 mg %
- Blood glucose depression (blood glucose; Animal B): 70 mg %
- Blood glucose depression (blood glucose; Animal C): 79 mg %
- Blood glucose depression (blood glucose; Animal D): 79 mg %
- Blood glucose depression (blood glucose; Animal E): 64 mg %
- Blood glucose depression (blood glucose; Animal F): 73 mg %
- Blood glucose depression, Mean ± S.E.M. (blood glucose; Mean of animals A-F, 0.1 mg protein/100 gm body weight subcutaneous): 73.33 ± 2.35 mg %
